In the supplement of paper PMC10290057:
Counter-ions that a name gives are not always drawn.

Tests used:
HCT116 [1] = assay: AC50 cell viability (CellTiter-Glo); higher = less potent; settings: 48 h
HCT116 [2] = assay: efficacy (fitted maximal change in viability relative to DMSO control); higher = less cytotoxic (negative = loss of viability); settings: 48 h
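Throughout, for AC50 cell viability (CellTiter-Glo): HCT116 colorectal carcinoma cells screened at five concentrations per compound, luminescent viability scaled between DMSO wells and empty wells on each plate, curves fitted per compound.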
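Throughout, for efficacy (fitted maximal change in viability relative to DMSO control): Luminescence-based viability readout, five doses per compound, normalized against on-plate DMSO and empty-well controls, followed by dose-response curve fitting for every drug.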

Row | SMILES | AC50 cell viability (HCT116 [1]) [µM] | efficacy (HCT116 [2]) [%]
1 | COc1cc(C(N)=O)ccc1NC(=O)[C@@H]1N[C@@H](CC(C)(C)C)[C@@]2(C(=O)Nc3cc(Cl)ccc32)[C@H]1c1cccc(Cl)c1F [RO8994] | 0.934 | -110
2 | COC(=O)c1ccc([C@H]2c3[nH]c4ccccc4c3C[C@H](C(=O)OC)N2C(=O)CCl)cc1 [RSL3] | 11.8 | -110
3 | COC1=CC(=C2C(=O)N\C(=N/C2=C1)C3=CC(=C(OCCO)C(=C3)C)C)OC [RVX-208] | 18.6 | -41.5
4 | COc1cc(OC)cc(N2CCN(C(=O)Nc3nc4cc(F)ccc4nc3OC)CC2)c1 [RX-5902 (SUPINOXIN)] | 2.63 | -60
5 | COCCCOc1ccnc(CS(=O)c2nc3ccccc3[n-]2)c1C.[Na+] (stereo not drawn) [Rabeprazole] | 16.6 | -43.4
6 | Cc1cnc(NC(=O)Nc2cc(Br)c(C)cc2OC[C@@H]2CNCCO2)cn1 [Rabusertib] | 16.6 | -103
7 | CC(C)(c1ccc(OCC(O)CO)cc1)c1ccc(OCC(O)CCl)cc1 (stereo not drawn) [Ralaniten (EPI-001)] | 18.6 | -37
8 | O=C(c1ccc(OCCN2CCCCC2)cc1)c1c(-c2ccc(O)cc2)sc2cc(O)ccc12 [Raloxifene hydrochloride] | 20.9 | -94.4
9 | C[N]1N=CC=C1NC2=NC=CC(=N2)C\3=C\C(=O)N(\C=C3)[C@H](CO)C4=CC(=C(Cl)C=C4)F [Ravoxertinib] | 14.8 | -116
10 | CO[C@@H]1[C@@H](O)[C@H](O)[C@@H](n2c3c(Cl)cccc3c3c4c(c5c6cccc(Cl)c6[nH]c5c32)C(=O)NC4=O)O[C@H]1CO [Rebeccamycin] | 0.934 | -88.9
11 | COc1cc(F)c(F)c(Nc2ccc(I)cc2F)c1N[S+](=O)([O-])C1(C[C@H](O)CO)CC1 [Refametinib] | 2.63 | -84.3
12 | CNC(=O)c1cc(Oc2ccc(NC(=O)Nc3ccc(Cl)c(C(F)(F)F)c3)c(F)c2)ccn1 [Regorafenib] | 5.25 | -85.3
13 | CONC(=O)Nc1ccc(-c2sc3c(c2CN(C)C)c(=O)n(-c2ccc(OC)nn2)c(=O)n3Cc2c(F)cccc2F)cc1 [Relugolix] | 23.5 | -67.3
14 | COC(=O)C1C2CC3c4[nH]c5cc(OC)ccc5c4CCN3CC2CC(OC(=O)c2cc(OC)c(OC)c(OC)c2)C1OC (stereo not drawn) [Reserpine] | 20.9 | -68.3
15 | CN(C)Cc1ccc([S+](=O)([O-])n2ccc(/C=C/C(=O)NO)c2)cc1 [Resminostat] | 2.35 | -103
16 | Oc1ccc(/C=C/c2cc(O)cc(O)c2)cc1 [Resveratrol] | 20.9 | -49.1
17 | C=CCNc1c(O)cc2c(O)c1C[C@@H](C)C[C@H](OC)[C@H](O)[C@@H](C)/C=C(/C)[C@H](OC(N)=O)[C@@H](OC)/C=C\C=C(\C)C(=O)N2 [Retaspimycin Hydrochloride] | 0.372 | -66.4
18 | c1nc2c(NC3CCCCC3)nc(Nc3ccc(N4CCOCC4)cc3)nc2[nH]1 [Reversine] | 6.61 | -114
19 | CO[C@H]1C[C@@H]2CC[C@@H](C)[C@@](O)(O2)C(=O)C(=O)N2CCCC[C@H]2C(=O)O[C@H]([C@H](C)C[C@@H]2CC[C@@H](OP(C)(C)=O)[C@H](OC)C2)CC(=O)[C@H](C)/C=C(\C)[C@@H](O)[C@@H](OC)C(=O)[C@H](C)C[C@H](C)/C=C/C=C/C=C/1C [Ridaforolimus] | 20.9 | -48.8
20 | CO[C@H]1/C=C/O[C@@]2(C)Oc3c(C)c(O)c4c(c3C2=O)C2=NC3(CCN(CC(C)C)CC3)NC2=C(NC(=O)/C(C)=C/C=C/[C@H](C)[C@H](O)[C@@H](C)[C@@H](O)[C@@H](C)[C@H](OC(C)=O)[C@@H]1C)C4=O [Rifabutin] | 23.5 | -60
21 | Nc1nc2ccc(OC(F)(F)F)cc2s1 [Riluzole] | 10.5 | -59.1
22 | Cc1c(C(=O)NN2CCCCC2)nn(-c2ccc(Cl)cc2Cl)c1-c1ccc(Cl)cc1 [Rimonabant] | 23.5 | -93.4
23 | CN1CCC(C1CO)C2=C(O)C=C(O)C3=C2O\C(=C/C3=O)C4=CC=CC=C4Cl (stereo not drawn) [Riviciclib (P276-00)] | 0.372 | -73.4
24 | C[S+](=O)([O-])c1ccc([C@@H](CC2CCCC2)C(=O)Nc2nccs2)cc1 [Ro-28-1675] | 23.5 | -67.1
25 | C=CC(=O)Nc1cccc(Nc2nc(Nc3ccc(N4CCN(C(C)=O)CC4)cc3OC)ncc2C(F)(F)F)c1 [Rociletinib] | 8.33 | -112
26 | C[C@@H](OC[C@@]1(c2ccccc2)CC[C@]2(CCC(=O)N2)CN1)c1cc(C(F)(F)F)cc(C(F)(F)F)c1 [Rolapitant] | 13.2 | -111
27 | C/C=C1\NC(=O)[C@H]2CSSCC/C=C\[C@H](CC(=O)N[C@H](C(C)C)C(=O)N2)OC(=O)[C@H](C(C)C)NC1=O [Romidepsin] | 0.00742 | -94.8

Row | SMILES | AC50 cell viability (HCT116 [1]) [µM] | efficacy (HCT116 [2]) [%]
28 | C[C@@H](O)[C@@H](C)Oc1nc(Nc2ccc([S+](=N)([O-])C3CC3)cc2)ncc1C(F)(F)F (stereo partly drawn) [Roniciclib] | 18.6 | -94
29 | [O-]C(=O)C1=C(C(=C(Cl)C(=C1Cl)Cl)Cl)C/2=C/3\C=C(I)/C(=O)/C(=C3OC4=C2C=C(I)C(=C4I)[O-])I [Rose Bengal disodium] | 16.6 | -47
30 | C=C(C)[C@H]1Cc2c(ccc3c2O[C@@H]2COc4cc(OC)c(OC)cc4[C@@H]2C3=O)O1 [Rotenone] | 0.525 | -64.9
31 | CN(C)C[C@@H]1CC[N]2C=C(C3=C2C=CC=C3)C/4=C(/C(=O)NC4=O)C5=C[N](CCO1)C6=C5C=CC=C6 [Ruboxistaurin mesylate] | 8.33 | -102
32 | CNCc1ccc(-c2[nH]c3cc(F)cc4c3c2CCNC4=O)cc1 [Rucaparib] | 18.6 | -101
33 | N#CC[C@H](C1CCCC1)n1cc(-c2ncnc3[nH]ccc23)cn1 [Ruxolitinib] | 11.8 | -67.4
34 | CNC1CCC(N(Cc2cccc(-c3ccncc3)c2)C(=O)c2sc3ccccc3c2Cl)CC1 (stereo not drawn) [SAG] | 16.6 | -98.5
35 | CCOc1cc(C(=O)Nc2ccc(Cl)c(-c3nc4ccccc4[nH]3)c2)cc(OCC)c1OCC [SANT-2] | 2.63 | -37.4
36 | CN1C/C=C/CCOc2cccc(c2)-c2ccnc(n2)Nc2cccc(c2)C1 [SB-1317] | 0.059 | -70.2
37 | O=C1\C=C(OC2=C1SC=C2C3=CC=C4OCCOC4=C3)\N5CCOCC5 [SF-2523] | 3.72 | -69.9
38 | CC(C)N(CCCNC(=O)Nc1ccc(C(C)(C)C)cc1)C[C@H]1O[C@@H](n2cc(Br)c3c(N)ncnc32)[C@H](O)[C@@H]1O [SGC-0946] | 20.9 | -95.9
39 | CN1CCC(CNc2ccc3ncc(-c4cccc(OC(F)(F)F)c4)n3n2)CC1 [SGI-1776] | 6.61 | -102
40 | Cc1c[nH]c2nc(Nc3ccc(N4CCN(C)CC4)c(F)c3)nc(-c3cccc(CC#N)c3)c12 [SGI-7079] | 0.525 | -83.9
41 | N#C/C(=C(/N)Sc1ccc(N)cc1)c1ccccc1C(F)(F)F [SL-327] | 13.2 | -80.4
42 | CN[C@@H](C)C(=O)N[C@H]1CCCC[C@H]2CC[C@@H](C(=O)N[C@@H](c3ccccc3)c3cn(CCCCc4ccc(CCCCn5cc([C@@H](NC(=O)[C@@H]6CC[C@@H]7CCCC[C@H](NC(=O)[C@H](C)NC)C(=O)N76)c6ccccc6)nn5)cc4)nn3)N2C1=O [SM-164] | 23.5 | -89.2
43 | CCC1=C2CN3C(=O)\C4=C(/C=C3/C2=NC5=CC=C(O)C=C15)[C@@](O)(CC)C(=O)OC4 [SN-38] | 0.0661 | -79.2
44 | O=C(Nc1cccc(Cl)c1)Nc1ncc(CCNc2ncnc3ccsc23)s1 [SNS-314] | 18.6 | -91.8
45 | C/C(=N\NC(=O)c1cccc([S+](=O)([O-])N2CCOCC2)c1)c1cc(Cl)ccc1O [SP2509] | 1.86 | -69.5
46 | C/C(NNC(=O)c1cccc([S+](=O)([O-])N2CCOCC2)c1)=C1\C=C(Cl)C=CC1=O [SP-2509] | 2.63 | -72
47 | COC1=CC=CC2=C1C(=NC(=N2)C3=CC=CS3)NN4C(=O)\C=C(C)/C4=O [SPC-839] | 0.525 | -91.1
48 | OC(c1ccc(-c2ccc(CN3CCN(Cc4ccncc4)CC3)cc2)c(F)c1)(C(F)(F)F)C(F)(F)F [SR-2211] | 10.5 | -44.3
49 | Cc1ccc(-c2ncn(-c3ccc(Nc4nccc(-c5cccc(N6CCOCC6)c5)n4)cc3)n2)cn1 [SR-3306] | 1.48 | -85.8
50 | CCCCCNC(=O)N1CCC(CN(Cc2ccc(Cl)cc2)Cc2ccc([N+](=O)[O-])s2)C1 (stereo not drawn) [SR-9011] | 20.9 | -71
51 | O=C(Nc1ccccc1-c1cn2c(CN3CCNCC3)csc2n1)c1cnc2ccccc2n1 [SRT-1720] | 7.42 | -83.6
52 | NC(=O)[C@H]1CCS[C@@H]2C[C@]3(CCCN3C(=O)Cc3ccc(NC(=O)COc4ccc(Cl)cc4Cl)cc3)C(=O)N12 [ST-2825] | 10.5 | -68.6
53 | O=C(Nc1nnc(-c2ccco2)o1)c1cc(-c2ccccc2)nc2ccccc12 [STX-0119] | 14.8 | -69.9
54 | CN(C)[S+](=O)([O-])c1ccc2c(c1)C(=Cc1cc3c([nH]1)CCCC3)C(=O)N2 [SU-6656] | 0.118 | -34.2
